Reference: patent US20170145000A1, “CANAGLIFLOZIN MONOHYDRATE AND ITS CRYSTALLINE FORMS, PREPARATION METHODS AND USES THEREOF” (Hangzhou Pushai Pharmaceutical Technology Co., Ltd., priority 2014, published 2017)
One block for each molecule: values may come before it.

Tests used:
Type in all cases: physicochemical
[1] = repetition of prior art forms and test of their properties (stability in water, phase stability); conditions: prior art processes repeated by the inventors; competitive stability test in water
Source text: The above properties may lead to problems in their pharmaceutical formulations, including variations in active substance content, poor reproducibility, impurities increasing during storage, efficacy decreasing, and so on. Moreover, the known canagliflozin is amorphous.

[2] = competitive stability test in water at room temperature with Monohydrate Form HI (XRPD); conditions: equal 250 mg samples of Form HI, known canagliflozin, Form A and Form hH1 mixed with 5 mL water, stirred 7 days
Method: The competitive stability test of canagliflozin Monohydrate Form HI of the present invention, the known canagliflozin, canagliflozin hemihydrate Form hH1 and canagliflozin Form A was performed in water at room temperature.
Conditions of the competitive stability test were as follows: take equal quantity (250 mg) samples of canagliflozin Monohydrate Form HI of the present invention, canagliflozin prepared in the preparation example 1, canagliflozin Form A prepared in the preparation example 2 and canagliflozin hemihydrate Form hH1 prepared in the preparation example 3 respectively, mix the samples with 5 mL of water to form a suspension. The suspension was stirred for 7 days at room temperature and then XRPD characterization analysis was performed.

[3] = competitive stability test in water at room temperature with Monohydrate Form HII (XRPD); conditions: equal 250 mg samples of Form HII, known canagliflozin, Form A and Form hH1 mixed with 3 mL water, stirred 7 days
Method: The competitive stability test among canagliflozin Monohydrate Form HII of the present invention, the known Canagliflozin, canagliflozin hemihydrate Form hH1 and canagliflozin Form A was performed in water at room temperature.
Conditions of the competitive stability test were as follows: take equal quantity (250 mg) samples of canagliflozin Monohydrate Form HII of the present invention, canagliflozin prepared in the preparation example 1 in the present invention, canagliflozin Form A prepared in the preparation example 2 in the present invention and canagliflozin hemihydrate Form hH1 prepared in the preparation 3 in the present invention, respectively, and mix the samples with 3 mL of water to form a suspension. The suspension was stirred for 7 days at room temperature and then XRPD characterization analysis was performed.

[4] = storage in desiccator at room temperature and controlled relative humidity; conditions: room temperature

Structure (SMILES): Cc1ccc([C@@H]2O[C@H](CO)[C@@H](O)[C@H](O)[C@H]2O)cc1Cc1ccc(-c2ccc(F)cc2)s1 [Cangaliflozin Form B]
stability in water / phase stability of repeated prior art forms [1]: poor phase stability

Structure (SMILES): Cc1ccc([C@@H]2O[C@H](CO)[C@@H](O)[C@H](O)[C@H]2O)cc1Cc1ccc(-c2ccc(F)cc2)s1 [canagliflozin Form A]
crystalline form after competitive stability test in water [2]: transformed to canagliflozin Monohydrate Form HI | crystalline form after competitive stability test in water [3]: transformed to canagliflozin Monohydrate Form HII | stability in water / phase stability of repeated prior art forms [1]: not stable in water

Structure (SMILES): Cc1ccc([C@@H]2O[C@H](CO)[C@@H](O)[C@H](O)[C@H]2O)cc1Cc1ccc(-c2ccc(F)cc2)s1 [canagliflozin Monohydrate Form HI, canagliflozin monohydrate Form HI]
crystalline form after competitive stability test in water [2]: maintained its original crystalline form | crystalline form after storage ([4]; desiccator, 10% to 90% RH, 4 months): remained unchanged

Structure (SMILES): Cc1ccc([C@@H]2O[C@H](CO)[C@@H](O)[C@H](O)[C@H]2O)cc1Cc1ccc(-c2ccc(F)cc2)s1 [canagliflozin Monohydrate Form HII]
crystalline form after competitive stability test in water [3]: maintained its original crystalline form | crystalline form after storage ([4]; desiccators, relative humidities from 57% to 75%, continued storage for 4 months): remained unchanged

Continued, in another order:

stability in water / phase stability of repeated prior art forms [1]: poor phase stability
Structure (SMILES): Cc1ccc([C@@H]2O[C@H](CO)[C@@H](O)[C@H](O)[C@H]2O)cc1Cc1ccc(-c2ccc(F)cc2)s1.O [canagliflozin hemihydrate Form hH1]
crystalline form after competitive stability test in water [2]: transformed to canagliflozin Monohydrate Form HI | crystalline form after competitive stability test in water [3]: transformed to canagliflozin Monohydrate Form HII

stability in water / phase stability of repeated prior art forms [1]: not stable in water
Structure (SMILES): Cc1ccc([C@@H]2O[C@H](CO)[C@@H](O)[C@H](O)[C@H]2O)cc1Cc1ccc(-c2ccc(F)cc2)s1 [known canagliflozin, (1S)-1,5-anhydro-1-[3-[[5-(4-fluorophenyl)-2-thienyl]methyl]-4-methylphenyl]-D-glucitol]
crystalline form after competitive stability test in water [2]: transformed to canagliflozin Monohydrate Form HI | crystalline form after competitive stability test in water [3]: transformed to canagliflozin Monohydrate Form HII | crystalline form after storage ([4]; desiccators, relative humidities from 57% to 75%, 1 day): transformed to canagliflozin Monohydrate Form HII
